Source: patent US5935955A, “Pharmaceutical piperazine compounds” (Xenova Limited, priority 1994, dated 1999)

Columns and labels:
AR 1.0 cells [1] = assay: Potentiation index for doxorubicin (doxorubicin titration with fixed concentration of compound); assay type: cell-based, mouse
Experimental: The EMT6 mouse mammary carcinoma cell line and the MDR resistant sublime AR 1.0 were cultured in RPMI 1640 medium containing 10% foetal calf serum and 2 mM glutamine at 37° C. in 5% CO2. Cells were passaged between 1 in 200 and 1 in 2000 in the case of the parental cell line and between 1 in 20 and 1 in 200 in the case of the MDR resistant subline, after trypsinisation (0.25% trypsin, 0.2 gl^-1, EDTA).
Cells were cultured for four days with a titration of doxorubicin (0.01 nm-50 μM) in the presence of a fixed concentration of each compound. Proliferation was quantified as described by Skehan et. al, loc cit. The IC50 (concentration required to reduce proliferation to 50% of the untreated controls) for doxorubicin alone and with each compound were derived and used to calculate the potentiation index (PI): [formula]

AR 1.0 cells [2] = assay: Potentiation of doxorubicin toxicity (fixed doxorubicin 0.86 μM, proliferation, sulphorhodamine B); assay type: cell-based, mouse
Description: Compounds of formula (I) were examined for their ability to potentiate the toxicity of doxorubicin in AR 1.0 cells.

AR 1.0 cells [3] = assay: Drug accumulation assay (tritiated daunorubicin); assay type: cell-based; conditions: Mus musculus, read-out: IC50 accumulation
Experimental: AR 1.0 cells were seeded into 96 well opaque culture plates (Canberra Packard). The assay medium contained a mixture of tritiated Daunorubicin (DNR), a cytotoxic agent, and unlabelled DNR (0.3 μCi/ml; 2 μM). Compounds of formula I were serially diluted in assay medium over a range of concentrations from 5 nM to 100 μM. The cells were incubated at 37° C. for 1 hr before washing and determination of cell associated radioactivity. Results were expressed as % maximum accumulation where 100% accumulation is that observed in the presence of the known RMA verapamil at 100 μM. Where possible an IC50 was determined.

AR 1.0 cells [4] = assay: Compound toxicity (proliferation, sulphorhodamine B); assay type: cell-based; conditions: Mus musculus, 96 h, read-out: Compound toxicity (IC50)
[5] = RMA at 1 μM, doxorubicin, four days
[6] = with doxorubicin 0.86 μM, four day incubation, 5760 min, read-out: Toxicity with cytotoxic agent (IC50)
[7] = daunorubicin 2 μM, 1 hr at 37° C.
[8] = compound alone, AR 1.0 cells, four day incubation

| IC50 (AR 1.0 cells [3]; [7]) | SMILES | Potentiation index (AR 1.0 cells [1]; [5]) | IC50 (AR 1.0 cells [2]; [6]) | IC50 (AR 1.0 cells [4]; [8]) | IC50 (AR 1.0 cells [2]; ar 1.0 cells, 96 h) | Potentiation index (AR 1.0 cells [1]; measured at 0.01 μM) | Potentiation index (AR 1.0 cells [1]; measured at 0.03 μM) | Potentiation index (AR 1.0 cells [1]; measured at 0.1 μM) | Potentiation index (AR 1.0 cells [1]; measured at 0.3 μM) | IC50 (AR 1.0 cells [3]; 1 h) | IC50 (AR 1.0 cells [4]) |
| --- | --- | --- | --- | --- | --- | --- | --- | --- | --- | --- | --- |
| 1000 nM | COc1cc2c(cc1OC)CN(CCc1ccc(COc3ccc(/C=c4\[nH]c(=O)/c(=C/c5ccccc5)n(C)c4=O)cc3)cc1)CC2 [Compound 9176, (3Z,6Z)-6-Benzylidene-3-(4-(4-(2-(6,7-dimethoxy-1,2,3,4-tetrahydro-2-isoquinolyl)ethyl)benzyloxy)benzylidene)-1-methyl-2,5-piperazinedione] | 300.0 | 200 nM | 10000 nM |  |  |  |  |  |  |  |
| 900 nM | COc1cc2c(cc1OC)CN(CCNC(=O)c1cccc(/C=c3\[nH]c(=O)/c(=C/c4ccccc4)n(C)c3=O)c1)CC2 [Compound 9136, N-(2-(6,7-Dimethoxy-1,2,3,4-tetrahydro-2-isoquinolyl)ethyl)-3-((3Z,6Z)-6-benzylidene-1-methyl-2,5-dioxo-3-piperazinylidene)methylbenzamide] | 25 | 2000 nM | 13000 nM |  |  |  |  |  |  |  |
| 400 nM | COc1cc2c(cc1OC)CN(CCc1ccc(NC(=O)c3ccc(/C=c4\[nH]c(=O)/c(=C/c5ccccc5)n(C)c4=O)cc3)cc1)CC2 [Compound 9006, N-(4-(2-(6,7-Dimethoxy-1,2,3,4-tetrahydro-2-isoquinolyl)ethyl)phenyl)-4-((3Z,6Z)-6-benzylidene-1-methyl-2,5-dioxo-3-piperazinylidene)methylbenzamide] | 1000 |  | 2000 nM |  |  |  |  |  |  |  |

Further lines, the compound ahead of its results:

| SMILES | IC50 (AR 1.0 cells [3]; [7]) | Potentiation index (AR 1.0 cells [1]; [5]) | IC50 (AR 1.0 cells [2]; [6]) | IC50 (AR 1.0 cells [4]; [8]) | IC50 (AR 1.0 cells [2]; ar 1.0 cells, 96 h) | Potentiation index (AR 1.0 cells [1]; measured at 0.01 μM) | Potentiation index (AR 1.0 cells [1]; measured at 0.03 μM) | Potentiation index (AR 1.0 cells [1]; measured at 0.1 μM) | Potentiation index (AR 1.0 cells [1]; measured at 0.3 μM) | IC50 (AR 1.0 cells [3]; 1 h) | IC50 (AR 1.0 cells [4]) |
| --- | --- | --- | --- | --- | --- | --- | --- | --- | --- | --- | --- |
| COc1ccc(CCN(C)CCc2ccc(NC(=O)c3cccc(/C=c4\[nH]c(=O)/c(=C/c5ccccc5)n(C)c4=O)c3)cc2)cc1OC [Compound 9138] | 800 nM | 333 | 1000 nM | 8000 nM |  |  |  |  |  |  |  |
| Cn1c(=O)/c(=C/c2ccc(C(=O)Nc3ccc(CCN4CCC(O)(c5ccc(Cl)cc5)CC4)cc3)cc2)[nH]c(=O)/c1=C/c1ccccc1 [Compound 9079, N-(4-(2-(4-(4-Chlorophenyl) -4-hydroxypiperidino)ethyl)phenyl)-4-((3Z,6Z)-6-benzylidene-1-methyl-2,5-dioxo-3-piperazinylidene)methylbenzamide] | 80000 nM | 3 |  | 2000 nM | 1700 nM |  |  |  |  |  |  |
| COc1cc2c(cc1OC)CN(CCc1ccc(C(=O)Nc3ccc(/C=c4\[nH]c(=O)/c(=C/c5ccccc5)n(C)c4=O)cc3)cc1)CC2 [Compound 9190, N-(4-((3Z,6Z)-6-Benzylidene-1-methyl-2,5-dioxo-3-piperazinylidene)methylphenyl)-4-(2-(6,7-dimethoxy-1,2,3,4-tetrahydro-2-isoquinolyl)ethyl)benzamide] | 350 nM |  | 50 nM | 15000 nM |  | 1.4 | 3.3 | 10.0 | 75.0 |  |  |
| COc1cc2c(cc1OC)CN(CCc1ccc(NC(=O)c3cccc(/C=c4\[nH]c(=O)/c(=C/c5ccccc5)n(C)c4=O)c3)cc1)CC2.Cl [Compound 9051, N-(4-(2-(6,7-Dimethoxy-1,2,3,4-tetrahydro-2-isoquinolyl)ethyl)phenyl)-3-((3Z,6Z)-6-benzylidene-1-methyl-2,5-dioxo-3-piperazinylidene)methylbenzamide, hydrochloride] |  | 2000 | 10 nM |  |  |  |  |  |  | 150 nM | 2000 nM |
| CN(CCNC(=O)c1cccc(/C=c2\[nH]c(=O)/c(=C/c3ccccc3)n(C)c2=O)c1)CC(c1ccccc1)c1ccccc1 [Compound 9163, N-(2-(2,2-Diphenylethyl)methylaminoethyl)-3-((3Z,6Z)-6-benzylidene-1-methyl-2,5-dioxo-3-piperazinylidene)methylbenzamide] | 2000 nM | 6.7 | 500 nM | 10000 nM |  |  |  |  |  |  |  |
